From paper PMC10057480, “Expanding the Library of 1,2,4-Oxadiazole Derivatives: Discovery of New Farnesoid X Receptor (FXR) Antagonists/Pregnane X Receptor (PXR) Agonists” (Molecules, 2023) come the findings set out here.

Structures are written as SMILES.

The data set is described as follows: LogD measurement (1-octanol/PBS pH 7.4, LC-MS/MS). The data set is classed as physicochemical. As for the experimental part:
40 μL of a 10 mM solution in DMSO of each compound was added to a 2 mL test tube containing 980 μL of PBS pH 7.4 and 980 μL of 1-Octanol (in duplicate). The tubes were shaken for 2 h at room temperature and subsequently kept still to allow for an optimal phase separation. The two phases were then separated, and 10 μL of each sample was diluted in 490 μL of MeOH for LC-MS/MS analysis. LogD was calculated as Log10 of the ratio of mass signal octanol/PBS. LC-MS/MS analysis was conducted using a Kinetex 2.6 µm C18 100 Å LC column 100 × 2.1 mm by means of a linear gradient of the aqueous phase (H2O 0.1% FA) and organic phase (ACN 0.1% FA).

As to `CCCCCN1CCC(c2nc(-c3ccc4ccccc4c3)no2)CC1` [Compound 5, 3-(Naphthalen-2-yl)-5-(1-pentylpiperidin-4-yl)-1,2,4-oxadiazole], the logD (in general, lipophilicity at a set pH, counting ionised and neutral species) at 2 h turned out to be 4.4. For the compound `OCc1ccc(CN2CCC(c3nc(-c4ccc5ccccc5c4)no3)CC2)cc1` [Compound 11, 5-[1-(4-(Hydroxymethyl)benzyl)piperidin-4-yl]-3-(naphthalen-2-yl)-1,2,4-oxadiazole], the logD at 2 h stood at 3.9.
